Activity calls are given as the source filed them.
Experiments:
[1] = molecular target: T1, DNA repair and recombination protein RAD54-like (Homo sapiens, UniProt Q92698); test: RAD54 Holliday junction migration blockers – biochemical, fluorescence, cherry-picked samples, dose series, confirmation (AID 651657); assay type: functional
T1 sequence (Q92698 whole entry): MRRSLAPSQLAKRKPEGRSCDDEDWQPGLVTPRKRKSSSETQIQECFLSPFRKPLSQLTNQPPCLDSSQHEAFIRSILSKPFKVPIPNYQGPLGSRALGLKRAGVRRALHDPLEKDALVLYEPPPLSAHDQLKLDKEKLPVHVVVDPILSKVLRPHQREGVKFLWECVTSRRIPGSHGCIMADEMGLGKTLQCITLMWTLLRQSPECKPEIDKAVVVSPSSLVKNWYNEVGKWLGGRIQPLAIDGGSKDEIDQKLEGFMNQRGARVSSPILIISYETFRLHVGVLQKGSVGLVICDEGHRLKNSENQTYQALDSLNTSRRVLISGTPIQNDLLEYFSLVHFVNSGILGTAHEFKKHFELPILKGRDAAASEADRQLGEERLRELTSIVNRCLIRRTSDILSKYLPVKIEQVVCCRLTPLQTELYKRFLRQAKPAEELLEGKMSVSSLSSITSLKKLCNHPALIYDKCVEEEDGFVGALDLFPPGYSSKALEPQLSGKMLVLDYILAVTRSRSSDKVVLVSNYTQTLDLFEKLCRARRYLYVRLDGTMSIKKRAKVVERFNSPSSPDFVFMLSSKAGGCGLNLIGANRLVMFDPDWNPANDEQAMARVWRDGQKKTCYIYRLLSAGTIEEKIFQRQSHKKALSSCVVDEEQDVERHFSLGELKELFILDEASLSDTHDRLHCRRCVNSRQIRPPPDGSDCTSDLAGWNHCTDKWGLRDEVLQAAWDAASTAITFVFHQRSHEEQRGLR

[2] = molecular target: T2, DNA repair protein RAD52 homolog (Homo sapiens, UniProt P43351); assay type: functional, biochemical
T2 sequence (P43351 whole entry): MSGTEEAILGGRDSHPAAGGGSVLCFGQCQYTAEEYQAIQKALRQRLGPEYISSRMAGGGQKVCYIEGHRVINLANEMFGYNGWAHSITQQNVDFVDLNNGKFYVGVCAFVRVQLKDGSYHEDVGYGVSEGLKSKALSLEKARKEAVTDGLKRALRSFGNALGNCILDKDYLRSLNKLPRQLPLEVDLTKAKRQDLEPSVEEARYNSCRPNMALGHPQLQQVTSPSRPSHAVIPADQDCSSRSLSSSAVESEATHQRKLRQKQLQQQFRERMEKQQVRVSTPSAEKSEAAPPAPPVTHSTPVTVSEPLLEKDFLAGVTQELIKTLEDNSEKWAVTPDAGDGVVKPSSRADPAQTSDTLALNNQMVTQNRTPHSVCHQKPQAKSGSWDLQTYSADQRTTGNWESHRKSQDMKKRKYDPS

Cytochrome P450 1A2 = molecular target: T3, Cytochrome P450 1A2 (Homo sapiens, UniProt P05177);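 also: PubChem cytochrome P450 panel assay, CYP1A2 panel member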
T3 sequence (P05177 whole entry): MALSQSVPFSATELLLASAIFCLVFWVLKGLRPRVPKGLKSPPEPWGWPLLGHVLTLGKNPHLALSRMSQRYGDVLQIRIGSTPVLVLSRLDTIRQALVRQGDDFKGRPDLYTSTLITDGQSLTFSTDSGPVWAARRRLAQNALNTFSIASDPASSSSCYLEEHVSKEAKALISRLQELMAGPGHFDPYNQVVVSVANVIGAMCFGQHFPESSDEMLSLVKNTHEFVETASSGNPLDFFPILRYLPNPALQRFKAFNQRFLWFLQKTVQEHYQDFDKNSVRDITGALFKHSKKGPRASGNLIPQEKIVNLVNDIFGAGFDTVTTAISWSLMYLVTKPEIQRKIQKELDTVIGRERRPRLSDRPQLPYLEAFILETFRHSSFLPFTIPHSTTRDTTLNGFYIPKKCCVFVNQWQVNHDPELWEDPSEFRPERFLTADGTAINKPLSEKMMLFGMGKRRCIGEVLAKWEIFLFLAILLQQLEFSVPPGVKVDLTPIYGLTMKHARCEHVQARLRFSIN

Cytochrome P450 2C9 = Cytochrome P450 2C9 (Homo sapiens, UniProt P11712)
Cytochrome P450 3A4 = Cytochrome P450 3A4 (Homo sapiens, UniProt P08684);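 also: CYP3A4 tested as one member of a cytochrome P450 panel screen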
Major prion protein = Major prion protein (Homo sapiens, UniProt P04156); assay type: functional, cell-based
[3] = molecular target: T4, Hepatocyte nuclear factor 4-alpha (Homo sapiens, UniProt P41235); assay type: functional, cell-based;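 also: biochemical luminescence-based dose-response counterscreen measuring inhibition of HNF4 dimerization, run alongside a screen for blockers of ABHD5–perilipin-5 interaction; split luciferase complementation of HNF4 fusion proteins in cell lysate measuring dimerization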
T4 sequence (P41235 whole entry): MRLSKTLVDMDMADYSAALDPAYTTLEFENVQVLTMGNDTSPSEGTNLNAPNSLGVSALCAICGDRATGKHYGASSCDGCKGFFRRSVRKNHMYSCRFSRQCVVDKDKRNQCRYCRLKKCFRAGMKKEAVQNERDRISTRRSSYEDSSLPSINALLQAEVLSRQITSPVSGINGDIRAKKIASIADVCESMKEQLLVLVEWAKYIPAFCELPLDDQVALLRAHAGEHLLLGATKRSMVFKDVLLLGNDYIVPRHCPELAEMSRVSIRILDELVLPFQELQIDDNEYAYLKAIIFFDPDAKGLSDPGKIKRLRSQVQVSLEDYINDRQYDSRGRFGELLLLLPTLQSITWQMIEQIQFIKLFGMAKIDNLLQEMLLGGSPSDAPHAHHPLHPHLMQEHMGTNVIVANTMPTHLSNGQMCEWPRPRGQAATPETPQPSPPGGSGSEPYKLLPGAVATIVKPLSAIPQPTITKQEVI

Paired box protein Pax-8 = Paired box protein Pax-8 (Homo sapiens, UniProt Q06710); test: PAX8 transcriptional activity inhibition in RMG-I – RMG-I cells, luciferase, cherry-pick, dose response (AID 687027); assay type: functional, cell-based;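 also: luciferase reporter driven by Pax8 target thyroperoxidase promoter measured by SteadyGlo luminescence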
[4] = OVCAR-3 cell viability loss – plate reader, dry powder samples, PAX8 inhibitor project, dose response (AID 743044); assay type: functional, cell-based
[5] = A549 cell cytotoxicity, dose response, cytotoxicity control, plate reader, cherry-pick, antagonist series (AID 743412); assay type: functional, cell-based
[6] = toxicity toward HepG2 liver cells – cell-based, plate reader, cherry-pick, antagonist series, cytotoxicity control, dose response (AID 743416); assay type: functional
[7] = blockers of bursicon-stimulated LGR2 cAMP reporter – cell-based, HEK293, CRE-luciferase reporter, cherry pick, set 2, dose response (AID 743343); assay type: functional;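 also: transfected cells were stimulated with diluted bursicon conditioned medium after compound addition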
[8] = general cell-killing toxicity readout – plate reader, dry powder samples, cytotoxicity control for PAX8 inhibitor project, dose response (AID 743021); assay type: functional, cell-based
[9] = blockade of melanocortin 4 receptor signaling – cell-based, plate reader, cherry pick, counter-screen for LGR2 antagonist project, dose response (AID 743444); assay type: functional;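 also: transfected HEK 293 cells stimulated with alpha-MSH peptide; potency of inhibitors of the alpha-MSH evoked signal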
[10] = OVCAR8 cell viability loss – plate reader, dry powder samples, PAX8 project, dose response (AID 743197); assay type: functional, cell-based; conditions: OVCAR-8
[11] = viability loss in HEK293 cells – cell-based, plate reader, cherry-picked samples, cytotoxicity control, dose response (AID 743446); assay type: functional
[12] = blockers of HIV-1 envelope-mediated cell-cell fusion – cherry-pick, dose response (AID 652057); assay type: functional, cell-based
[13] = viability loss in CEM21 cells – cell-based, CellTiter-Glo luminescence, cherry-picked, cytotoxicity control for viral fusion inhibitor project, dose response (AID 652042); assay type: functional;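 also: potency for signal decrease meaning cytotoxicity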
[14] = blockers of HIV-1 ZM109 envelope-driven cell-cell fusion – HeLa effector, CEM target cells, luciferase, cherry-pick, dose response (AID 652058); assay type: functional, cell-based;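 also: luciferase signal from HIV-1 Env mediated cell-cell fusion of effector and target cells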
[15] = off-target signal loss in HeLa-CEM21 co-culture – HeLa F-luc CTL cells, cherry-picked, counter-screen for HIV-1 Env fusion inhibitor project, dose response (AID 652040); assay type: functional, cell-based;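 also: potency for signal decrease marking cytotoxic or nonspecific inhibition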
[16] = HIV-1 AD8 envelope cell-cell fusion blockers – cherry-pick, dose response (AID 652062); assay type: functional, cell-based;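 also: luciferase signal from cell-cell fusion driven by HIV-1 clade B AD8 Env; potency is for inhibitors of fusion seen as a drop in luminescence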
[17] = molecular target: Glucose-6-phosphate 1-dehydrogenase (Homo sapiens, UniProt P11413); test: inhibition of Homo sapiens G6PD, dose series – biochemical, fluorescence, selectivity assay for P. falciparum G6PD inhibitor project, dose response (AID 504792); assay type: functional
[18] = molecular target: Heat shock protein HSP 90-alpha (Homo sapiens, UniProt P07900); assay type: functional, organism-based
[19] = molecular target: T5, Probable nicotinate-nucleotide adenylyltransferase (Staphylococcus aureus (strain N315), UniProt P65502); assay type: functional, Staphylococcus aureus subsp. aureus N315;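 as to IC50 Mean: confirmatory dose-response retesting of NadD inhibitor hits first found in an ultra-high-throughput screen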
[20] = molecular target: T5, Probable nicotinate-nucleotide adenylyltransferase; assay type: functional, Staphylococcus aureus subsp. aureus N315; conditions: read-out: IC50_Mean
[21] = viability loss in HeLa cells – cytotoxicity control for MgcRacGAP inhibitor project, dose response (AID 624300); assay type: functional
[22] = molecular target: T6, Rac GTPase-activating protein 1 (Homo sapiens, UniProt Q9H0H5); test: blockers of MgcRacGAP-driven Rac1 GTP hydrolysis – biochemical, ADP Hunter fluorescence, primary and confirmatory, confirmation (AID 624330); assay type: functional
T6 sequence (Q9H0H5 whole entry): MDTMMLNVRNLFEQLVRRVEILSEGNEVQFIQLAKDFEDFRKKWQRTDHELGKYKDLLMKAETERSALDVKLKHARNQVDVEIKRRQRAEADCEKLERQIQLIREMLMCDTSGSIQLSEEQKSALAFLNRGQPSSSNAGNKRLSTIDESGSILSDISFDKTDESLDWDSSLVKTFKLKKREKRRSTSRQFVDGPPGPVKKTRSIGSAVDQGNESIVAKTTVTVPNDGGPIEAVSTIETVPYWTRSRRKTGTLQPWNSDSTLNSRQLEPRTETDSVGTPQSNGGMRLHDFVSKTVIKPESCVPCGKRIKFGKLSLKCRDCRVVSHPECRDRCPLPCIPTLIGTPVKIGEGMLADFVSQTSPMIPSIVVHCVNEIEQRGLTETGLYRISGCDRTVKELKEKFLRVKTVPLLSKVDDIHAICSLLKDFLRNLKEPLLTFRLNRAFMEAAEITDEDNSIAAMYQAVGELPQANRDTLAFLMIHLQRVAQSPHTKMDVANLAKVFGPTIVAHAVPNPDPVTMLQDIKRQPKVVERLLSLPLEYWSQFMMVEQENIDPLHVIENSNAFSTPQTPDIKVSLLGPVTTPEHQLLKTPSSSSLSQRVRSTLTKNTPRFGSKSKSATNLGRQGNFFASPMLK

In the case of CCOC(=O)c1c(NC(=O)c2ccc(S(=O)(=O)N3CCOCC3)cc2)sc2c1CCN(C)C2, the AC50 [1] is reported as 15.3 µM (active), the AC50 [2] is reported as 11.6 µM (active) and the AC50 (Cytochrome P450 1A2) is reported as 12.6 µM (inconclusive). For the same compound, the AC50 (Cytochrome P450 2C9) was 14.1 µM (inconclusive) and the AC50 (Cytochrome P450 3A4) was “inconclusive”.
For O=C(C1=C(O)C(=O)N(CCN2CCOCC2)C1c1cccc(Br)c1)c1cc2ccccc2o1 (configuration not stated), the IC50 (Major prion protein) was 3.22 µM (active) and the IC50 (cells) was > 138 µM (inactive).
For CCCCCNC(=O)C(c1ccc(C(F)(F)F)cc1)n1c(=O)c(-c2ccco2)nc2ccccc21 (configuration not stated), the IC50 [3] was 2.85 µM (active).
For Cn1nc(C(F)(F)F)c(/C=N/OC(=O)c2ccccc2Cl)c1SCc1ccccc1Cl, the IC50 (Major prion protein) was 4.68 µM (active) and the IC50 (cells) was > 138 µM (inactive).
With O=S(=O)(c1ccccc1F)N1CC[C@@H]2[C@H]1c1cc(-c3cccc(F)c3)ccc1N[C@@H]2CO the AC50 (Paired box protein Pax-8) was 4.09 µM (active), the AC50 [4] was 49 µM (active) and the AC50 [5] was 8.1 µM (active). The AC50 [6] was 18.6 µM (active), the AC50 [7] was 11.1 µM (active) and the AC50 [8] was 5.52 µM (active). The AC50 [9] was 11.2 µM (active), the AC50 [10] was 15.6 µM (active) and the AC50 [11] was 15.3 µM (active).
With C/C=C/c1ccc(OCCOCCNCc2ccccc2)c(OC)c1 the AC50 [12] was 3.51 µM (active), the AC50 [13] was 33.7 µM (active) and the AC50 [14] was 5.73 µM (active). For the same compound, the AC50 [15] was 4.93 µM (active) and the AC50 [16] was 12.2 µM (active).
With Cc1ccc(NC(=O)c2ccc(-c3nn(C)c(=O)c4ccccc34)cc2)cc1 the AC50 [12] was 24.9 µM (active), the AC50 [13] was 57.8 µM (active) and the AC50 [14] was 3.31 µM (active). For the same compound, the AC50 [15] was 16.8 µM (active) and the AC50 [16] was 6.49 µM (active).
In the case of O=[N+]([O-])c1cccc(SSc2cccc([N+](=O)[O-])c2)c1, the IC50 [17] is reported as > 80 µM (inactive), the AC50 [18] is reported as 4.25 µM (active) and the IC50 [19] is reported as 1.62 µM (active). For the same compound, the IC50 [20] was 3.73 µM (active), the CC50 [21] was 100 µM (active) and the IC50 [22] was 53.9 µM (active).
With COC(=O)CSc1ncnc2scc(-c3ccccc3)c12 the IC50 (Major prion protein) was 5.59 µM (active) and the IC50 (cells) was > 138 µM (inactive).
